Measured values: publication PMC4718068 (Translation, 2013)

What was measured:
EF-G [1] = biological target: EF-G (Escherichia coli, UniProt P0A6M8, H92A); assay: equilibrium titration, Trp fluorescence; assay type: binding
EF-G [2] = biological target: EF-G (Escherichia coli, UniProt P0A6M8); assay: equilibrium titration, Trp fluorescence; assay type: binding
[3] = biological target: Ribosomes from E. coli MRE 600 (E. coli MRE 600) (UniProt P0AG67); assay: stopped-flow fluorescence of mant-nucleotide excited by FRET from Trp of EF-G

Sequence of EF-G (Escherichia coli, UniProt P0A6M8, H92A) (P0A6M8 2-704 H92A): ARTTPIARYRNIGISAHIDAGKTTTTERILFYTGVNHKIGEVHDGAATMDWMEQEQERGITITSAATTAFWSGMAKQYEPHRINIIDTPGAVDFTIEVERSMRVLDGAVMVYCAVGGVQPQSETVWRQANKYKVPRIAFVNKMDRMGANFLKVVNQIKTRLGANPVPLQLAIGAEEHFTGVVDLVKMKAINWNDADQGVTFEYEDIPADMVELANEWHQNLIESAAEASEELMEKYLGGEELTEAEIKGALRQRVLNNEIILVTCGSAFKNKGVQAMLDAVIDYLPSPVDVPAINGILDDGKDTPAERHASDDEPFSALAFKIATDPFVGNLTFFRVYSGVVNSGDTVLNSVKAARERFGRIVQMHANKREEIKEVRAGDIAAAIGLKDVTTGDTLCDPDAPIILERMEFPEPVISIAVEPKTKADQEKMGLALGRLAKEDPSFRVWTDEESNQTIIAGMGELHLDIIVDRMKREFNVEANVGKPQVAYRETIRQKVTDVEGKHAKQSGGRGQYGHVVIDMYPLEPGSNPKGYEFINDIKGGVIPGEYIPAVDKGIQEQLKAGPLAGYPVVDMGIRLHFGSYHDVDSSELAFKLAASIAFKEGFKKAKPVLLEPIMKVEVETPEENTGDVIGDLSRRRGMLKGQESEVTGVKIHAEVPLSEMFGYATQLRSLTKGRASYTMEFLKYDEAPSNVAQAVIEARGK
Sequence of EF-G (Escherichia coli, UniProt P0A6M8) (P0A6M8 2-704): as the sequence (P0A6M8 2-704 H92A) above, with A91H counted along it

| Kd (EF-G [1]) [nM] | Kd (EF-G [2]) [nM] | rate of formation of the ribosome–EF-G-mant-GTP complex [3] [s⁻¹] | Compound |
| --- | --- | --- | --- |
| 1000 to 2000 | 1000 to 2000 |  | Nc1nc2c(ncn2[C@@H]2O[C@H](COP(=O)(O)OP(=O)(O)OP(=O)(O)O)[C@@H](O)[C@H]2O)c(=O)[nH]1 [GTP] |
|  |  | 1 | EF-G(H91A) (enzyme) |
